Test results as given in patent publication US20250081967A1, “PESTICIDALLY ACTIVE HETEROCYCLIC DERIVATIVES WITH SULFOXIMINE CONTAINING SUBSTITUENTS” (SYNGENTA CROP PROTECTION AG, priority 2021, published 2025).

Assays:
Assay type in all cases: in vivo
Myzus persicae [1] = assay: Activity against Myzus persicae (green peach aphid), feeding/contact activity, sunflower leaf discs; settings: for mortality at 200 ppm: 144 h, application rate 200 ppm, feeding/contact, 6 days after infestation
Description: Example B4: Activity Against Myzus persicae (Green Peach Aphid) Feeding/Contact Activity
Sunflower leaf discs were placed on agar in a 24-well microtiter plate and sprayed with aqueous test solutions prepared from 10′000 ppm DMSO stock solutions. After drying, the leaf discs were infested with an aphid population of mixed ages. The samples were assessed for mortality 6 days after infestation.

Myzus persicae [2] = assay: Activity against Myzus persicae (green peach aphid), systemic activity, pea seedlings; settings: Myzus persicae
Description: Example B5: Activity Against Myzus persicae (Green Peach Aphid) Systemic Activity
Roots of pea seedlings infested with an aphid population of mixed ages were placed directly in the aqueous test solutions prepared from 10′000 DMSO stock solutions. The samples were assessed for mortality 6 days after placing seedlings in test solutions.

Bemisia tabaci = assay: Activity against Bemisia tabaci (cotton white fly), cotton leaf discs; settings: foliar; for mortality at 200 ppm: 144 h, application rate 200 ppm, adult white flies, 6 days after incubation; for mortality at 12.5 ppm: concentration 12.5 ppm
Description: Example B6: Activity Against Bemisia tabaci (Cotton White Fly)
Cotton leaf discs were placed on agar in 24-well microtiter plates and sprayed with aqueous test solutions prepared from 10′000 ppm DMSO stock solutions. After drying the leaf discs were infested with adult white flies. The samples were checked for mortality 6 days after incubation.

Diabrotica balteata = assay: Activity against Diabrotica balteata (corn root worm), maize sprouts; settings: for mortality at 50 ppm: concentration 50 ppm; for percent effect (mortality or growth inhibition) at 200 ppm: 96 h, application rate 200 ppm, L2 larvae, 4 days after infestation, read-out: effect in at least one of the two categories (mortality or growth inhibition); for mortality at 3.125 ppm: concentration 3.125 ppm
Description: Example B3: Activity Against Diabrotica Balteata (Corn Root Worm)
Maize sprouts placed onto an agar layer in 24-well microtiter plates were treated with aqueous test solutions prepared from 10′000 ppm DMSO stock solutions by spraying. After drying, the plates were infested with L2 larvae (6 to 10 per well). The samples were assessed for mortality and growth inhibition in comparison to untreated samples 4 days after infestation.

Spodoptera littoralis = assay: Activity against Spodoptera littoralis (Egyptian cotton leaf worm), cotton leaf discs; settings: foliar, 72 h, application rate 200 ppm, L1 larvae, 3 days after infestation, read-out: control (mortality, anti-feeding effect or growth inhibition)
Description: Example B1: Activity Against Spodoptera littoralis (Egyptian Cotton Leaf Worm)
Cotton leaf discs were placed onto agar in 24-well microtiter plates and sprayed with aqueous test solutions prepared from 10′000 ppm DMSO stock solutions. After drying the leaf discs were infested with five L1 larvae. The samples were assessed for mortality, anti-feeding effect, and growth inhibition in comparison to untreated samples 3 days after infestation. Control of Spodoptera littoralis by a test sample is given when at least one of the categories mortality, anti-feedant effect, and growth inhibition is higher than the untreated sample.

Plutella xylostella = assay: Activity against Plutella xylostella (diamond back moth), artificial diet, eggs; settings: 192 h, application rate 200 ppm, 8 days after infestation, read-out: effect in at least one of the two categories (mortality or growth inhibition)
Description: Example B9: Activity Against Plutella xylostella (Diamond Back Moth)
24-well microtiter plates with artificial diet were treated with aqueous test solutions prepared from 10′000 ppm DMSO stock solutions by pipetting. After drying, Plutella eggs were pipetted through a plastic stencil onto a gel blotting paper and the plate was closed with it. The samples were assessed for mortality and growth inhibition in comparison to untreated samples 8 days after infestation.

[3] = Myzus persicae, foliar, Myzus persicae (feeding/contact), concentration 3.125 ppm
[4] = Myzus persicae (systemic), concentration 24 ppm
[5] = 144 h, test rate 24 ppm, systemic, 6 days after placing seedlings in test solutions

CCS(=O)(=O)c1cc(C2(C#N)CC2)cnc1-c1nc2cc(C(F)(F)F)nnc2n1C [Described in WO18/108726 as compound H-1, reference compound]
mortality at 3.125 ppm (Myzus persicae [1]; [3]): 80%

CCS(=O)(=O)c1cc(OC(C)(C)C#N)cnc1-c1nc2cc(C(F)(F)F)cnc2n1C [Described in WO21/219810 as compound P3, reference compound]
mortality at 24 ppm (Myzus persicae [2]; [4]): 50%

CCS(=O)(=O)c1cc(OC(C)(C)C#N)cnc1-c1cn2cnc(C(F)(F)F)cc2n1 [Described in WO18/206348 as compound P13, reference compound]
mortality at 24 ppm (Myzus persicae [2]; [4]): 0%

CCS(=N)(=O)c1cc(OC(C)(C)C#N)cnc1-c1cn2cnc(C(F)(F)F)cc2n1 (single isomer, unassigned) [Compound P11-B, 2-[[5-(ethylsulfonimidoyl)-6-[7-(trifluoromethyl)imidazo[1,2-c]pyrimidin-2-yl]-3-pyridyl]oxy]-2-methyl-propanenitrile]
mortality at 200 ppm (Bemisia tabaci): ≥ 80%

CCS(=N)(=O)c1cc(C2(C#N)CC2)ccc1-c1nc2cc(C(F)(F)F)ncc2n1C (racemic) [Described in WO19/234158 as compound P13, reference compound]
mortality at 12.5 ppm (Bemisia tabaci): 0%
mortality at 50 ppm (Diabrotica balteata): 0%

CCS(=N)(=O)c1cc(C2(C#N)CC2)cnc1-c1nc2cc(C(F)(F)F)nnc2n1C (single isomer, unassigned) [Compound P2-B, 1-[5-(ethylsulfonimidoyl)-6-[7-methyl-3-(trifluoromethyl)imidazo[4,5-c]pyridazin-6-yl]-3-pyridyl]cyclopropanecarbonitrile]
Mortality (%) (Myzus persicae [1]; Myzus persicae (feeding/contact), concentration 3.125 ppm): 50%

CCS(=N)(=O)c1cc(OC(C)(C)C#N)cnc1-c1cn2ccc(C(F)(F)F)cc2n1 (single isomer, unassigned) [Compound P3-A, 2-[[5-(ethylsulfonimidoyl)-6-[7-(trifluoromethyl)imidazo[1,2-a]pyridin-2-yl]-3-pyridyl]oxy]-2-methyl-propanenitrile]
mortality at 200 ppm (Myzus persicae [1]; Myzus persicae, foliar): ≥ 80%
percent effect (mortality or growth inhibition) at 200 ppm (Diabrotica balteata): ≥ 80%
percent control (mortality, anti-feedant effect or growth inhibition) at 200 ppm (Spodoptera littoralis): ≥ 80%

CCS(=N)(=O)c1cc(C2(C#N)CC2)ccc1-c1nc2cc(C(F)(F)F)cnc2n1C (racemic) [Described in WO19/234158 as compound P15, reference compound]
mortality at 50 ppm (Diabrotica balteata): 0%

CCS(=N)(=O)c1cc(OC(C)(C)C#N)cnc1-c1nc2cc(C(F)(F)F)cnc2n1C (racemic) [Described in WO20/084075 as compound P3, reference compound]
mortality at 50 ppm (Diabrotica balteata): 80%

CCS(=N)(=O)c1cc(OC(C)(C)C#N)cnc1-c1nc2cc(C(F)(F)F)ncc2n1C (racemic) [Described in WO20/084075 as compound P1, reference compound]
mortality at 50 ppm (Diabrotica balteata): 0%

CCS(=N)(=O)c1cc(C2(C#N)CC2)cnc1-c1nc2cc(C(F)(F)F)ncc2n1C (racemic) [reference compound]
mortality at 12.5 ppm (Bemisia tabaci): 50%

CCS(=O)(=O)c1cc(OC(C)(C)C#N)c(C)nc1-c1nc2cc(C(F)(F)F)cnc2n1C (racemic) [Described in WO20/084075 as compound P4, reference compound]
mortality at 3.125 ppm (Diabrotica balteata): 0%

CCS(=N)(=O)c1cc(C(C)(C)C#N)cnc1-c1nc2cc(C(F)(F)F)ncc2n1C (single isomer, unassigned) [Compound P4-B, 2-[5-(ethylsulfonimidoyl)-6-[3-methyl-6-(trifluoromethyl)imidazo[4,5-c]pyridin-2-yl]-3-pyridyl]-2-methyl-propanenitrile]
percent effect (mortality or growth inhibition) at 200 ppm (Plutella xylostella): ≥ 80%
percent effect (mortality or growth inhibition) at 200 ppm (Diabrotica balteata): ≥ 80%

CCS(=N)(=O)c1cc(C(C)(C)C#N)cnc1-c1nc2cc(C(F)(F)F)ncc2n1C (racemic) [Compound P4, 2-[5-(ethylsulfonimidoyl)-6-[3-methyl-6-(trifluoromethyl)imidazo[4,5-c]pyridin-2-yl]-3-pyridyl]-2-methyl-propanenitrile]
mortality at 200 ppm (Bemisia tabaci): ≥ 80%
mortality at 200 ppm (Myzus persicae [1]; Myzus persicae, foliar): ≥ 80%
mortality at 24 ppm (Myzus persicae [2]; [5]): ≥ 80%

CCS(=O)(=O)c1cc(C2(C#N)CC2)cnc1-c1nc2cc(C(F)(F)F)ncc2n1C [reference compound]
mortality at 0.781 ppm (Myzus persicae [1]; Myzus persicae, foliar, Myzus persicae (feeding/contact), concentration 0.781 ppm): 0%

CCS(=O)(=O)c1cc(OC(C)(C)C#N)cnc1-c1nc2cc(C(F)(F)F)n(C3CC3)c(=O)c2n1C [Described in WO21/219810 as compound P7, reference compound]
mortality at 50 ppm (Myzus persicae [1]; Myzus persicae, foliar, Myzus persicae (contact), concentration 50 ppm): 0%

CCS(=N)(=O)c1cc(OC(C)(C)C#N)c(C)nc1-c1nc2cc(C(F)(F)F)cnc2n1C (single isomer, unassigned) [Compound P5-A, 2-[[5-(ethylsulfonimidoyl)-2-methyl-6-[3-methyl-6-(trifluoromethyl)imidazo[4,5-b]pyridin-2-yl]-3-pyridyl]oxy]-2-methyl-propanenitrile]
mortality at 200 ppm (Bemisia tabaci): ≥ 80%
mortality at 200 ppm (Myzus persicae [1]; Myzus persicae, foliar): ≥ 80%
percent effect (mortality or growth inhibition) at 200 ppm (Diabrotica balteata): ≥ 80%
mortality at 3.125 ppm (Diabrotica balteata): 80%
mortality at 24 ppm (Myzus persicae [2]; [5]): ≥ 80%
mortality at 24 ppm (Myzus persicae [2]; [4]): 100%
percent control (mortality, anti-feedant effect or growth inhibition) at 200 ppm (Spodoptera littoralis): ≥ 80%

CCS(=N)(=O)c1cc(C(C)(C)C#N)cnc1-c1nc2cc(C(F)(F)F)ncc2n1C (single isomer, unassigned) [Compound P4-A, 2-[5-(ethylsulfonimidoyl)-6-[3-methyl-6-(trifluoromethyl)imidazo[4,5-c]pyridin-2-yl]-3-pyridyl]-2-methyl-propanenitrile]
mortality at 200 ppm (Bemisia tabaci): ≥ 80%
mortality at 200 ppm (Myzus persicae [1]; Myzus persicae, foliar): ≥ 80%
mortality at 24 ppm (Myzus persicae [2]; [5]): ≥ 80%

CCS(=N)(=O)c1cc(OC(C)(C)C#N)cnc1-c1nc2cc(C(F)(F)F)nnc2n1C (racemic) [Described in WO20/084075 as compound P2, reference compound]
mortality at 12.5 ppm (Diabrotica balteata; concentration 12.5 ppm): 0%

CCS(=O)(=O)c1cc(C2(C#N)CC2)ccc1-c1nc2cc(C(F)(F)F)cnc2n1C [reference compound]
mortality at 6 ppm (Myzus persicae [2]; Myzus persicae (systemic), concentration 6 ppm): 0%

CCS(=O)(=O)c1cc(OC(C)(C)C#N)cnc1-c1nc2cc(C(F)(F)F)ncc2n1C [Described in WO18/197315 as compound P18, reference compound]
mortality at 12.5 ppm (Myzus persicae [1]; Myzus persicae, foliar, Myzus persicae (feeding/contact), concentration 12.5 ppm): 65%

CCn1c(C(F)(F)F)cc2nc(-c3ncc(C4(C#N)CC4)cc3S(=N)(=O)CC)n(C)c2c1=O (racemic) [Described in WO19/234158 as compound P14, reference compound]
mortality at 50 ppm (Diabrotica balteata): 0%

CCS(=N)(=O)c1cc(C2(C#N)CC2)cnc1-c1nc2cc(C(F)(F)F)cnc2n1C (racemic) [Described in WO19/234158 as compound P6, reference compound]
mortality at 12.5 ppm (Bemisia tabaci): 50%

CCS(=O)(=O)c1cc(OC(C)(C)C#N)c(C)nc1-c1nc2cc(C(F)(F)F)cnc2n1C [Described in WO21/219810 as compound P4, reference compound]
mortality at 24 ppm (Myzus persicae [2]; [4]): 0%

CCS(=N)(=O)c1cc(OC(C)(C)C#N)cnc1-c1nc2cc(C(F)(F)F)nnc2n1C (single isomer, unassigned) [Compound P15-B, 2-[[5-(ethylsulfonimidoyl)-6-[7-methyl-3-(trifluoromethyl)imidazo[4,5-c]pyridazin-6-yl]-3-pyridyl]oxy]-2-methyl-propanenitrile]
Mortality (%) (Diabrotica balteata; concentration 12.5 ppm): 100%

CCS(=O)(=O)c1cc(C2(C#N)CC2)cnc1-c1nc2cc(C(F)(F)F)cnc2n1C [reference compound]
mortality at 3.125 ppm (Myzus persicae [1]; [3]): 80%

CCS(=N)(=O)c1cc(OC(C)(C)C#N)cnc1-c1cn2ccc(C(F)(F)F)cc2n1 (single isomer, unassigned) [Compound P3-B, 2-[[5-(ethylsulfonimidoyl)-6-[7-(trifluoromethyl)imidazo[1,2-a]pyridin-2-yl]-3-pyridyl]oxy]-2-methyl-propanenitrile]
percent effect (mortality or growth inhibition) at 200 ppm (Plutella xylostella): ≥ 80%
mortality at 24 ppm (Myzus persicae [2]; [5]): ≥ 80%

CCS(=N)(=O)c1cc(OC(C)(C)C#N)cnc1-c1cn2cnc(SC(F)(F)F)cc2n1 (racemic) [Described in WO20/084075 as compound P11, reference compound]
mortality at 50 ppm (Bemisia tabaci; concentration 50 ppm): 50%
